US6399574B1 (priority 1997, dated 2002)
Where no end group is shown, it is not given here.

Columns and labels:
[1] = tested on: NMDA receptor (spermine-stimulated [^3H]MK-801 binding)
[2] = mouse, tissue homogenate

Compound	IC50 (μM) [1]	IC50 [1]	also measured
(A^7,10,14)4-17: Con G derivative, A at 7, 10, 14, residues 1-3 deleted (ELQANQALIRAKSN; ends and bridges not checked; UniProt P07231 81-97, looked up, variant del1-3 E7A E10A E14A)	inactive		
(A^7,10,14)3-17: Con G derivative, A at 7, 10, 14, residues 1-2 deleted (EELQANQALIRAKSN; ends and bridges not checked; UniProt P07231 81-97, looked up, variant del1-2 E7A E10A E14A)	inactive		
(A^7,10,14)6-17: Con G derivative, A at 7, 10, 14, residues 1-5 deleted (QANQALIRAKSN; ends and bridges not checked; UniProt P07231 81-97, looked up, variant del1-5 E7A E10A E14A)	inactive		
CC[C@H](C)[C@H](NC(=O)[C@H](CC(N)=O)NC(=O)[C@H](CCC(=O)O)NC(=O)[C@H](CCCNC(=N)N)NC(=O)[C@H](C)NC(=O)[C@H](CC(C)C)NC(=O)[C@H](CCC(=O)O)NC(=O)[C@H](C)NC(=O)[C@H](C)NC(=O)[C@H](CCSC)NC(=O)[C@H](CCCCN)NC(=O)[C@H](C)NC(=O)[C@@H](NC(=O)[C@H](CCC(=O)O)NC(=O)[C@H](CCC(=O)O)NC(=O)[C@H](CCC(=O)O)NC(=O)CN)C(C)C)C(=O)N[C@@H](C)C(=O)N[C@@H](CCCCN)C(=O)NCC(=O)N[C@H]1CSSC[C@@H](C(=O)N[C@@H](Cc2ccc(O)cc2)C(=O)N2CCC[C@H]2C(=O)O)NC(=O)[C@H](CC(N)=O)NC(=O)[C@H](C(C)C)NC(=O)[C@H](CCCCN)NC1=O [ECon R]			half-life [2]: 2.4 min
(A^7,10,14)1-14: Con G derivative, A at 7, 10, 14, residues 15-17 deleted (GEEELQANQALIRA; ends and bridges not checked; UniProt P07231 81-97, looked up, variant E7A E10A E14A del15-17)		232 nM	
(A^7,10,14)5-17: Con G derivative, A at 7, 10, 14, residues 1-4 deleted (LQANQALIRAKSN; ends and bridges not checked; UniProt P07231 81-97, looked up, variant del1-4 E7A E10A E14A)	inactive		
(A^7,10,14)2-17: Con G derivative, A at 7, 10, 14, residue 1 deleted (EEELQANQALIRAKSN; ends and bridges not checked; UniProt P07231 81-97, looked up, variant del1-1 E7A E10A E14A)	inactive		
A^7,10,14: Con G derivative, A at positions 7, 10 and 14 (GEEELQANQALIRAKSN; ends and bridges not checked; UniProt P07231 81-97, looked up, variant E7A E10A E14A)		88 nM	
A^7,Y^10: Con G derivative, A at position 7 and Y at position 10 (GEEELQANQYLIREKSN; ends and bridges not checked; UniProt P07231 81-97, looked up, variant E7A E10Y)		79 nM	
(A^7,10,14)1-16: Con G derivative, A at 7, 10, 14, residue 17 deleted (GEEELQANQALIRAKS; ends and bridges not checked; UniProt P07231 81-97, looked up, variant E7A E10A E14A del17-17)		37 nM	
(A^7,10)1-13: Con G derivative, A at 7 and 10, residues 14-17 deleted (GEEELQANQALIR; ends and bridges not checked; UniProt P07231 81-97, looked up, variant E7A E10A del14-17)		253 nM	
(A^7,10)1-12: Con G derivative, A at 7 and 10, residues 13-17 deleted (GEEELQANQALI; ends and bridges not checked; UniProt P07231 81-97, looked up, variant E7A E10A del13-17)		300 nM	
(A^7,10,14)1-15: Con G derivative, A at 7, 10, 14, residues 16-17 deleted (GEEELQANQALIRAK; ends and bridges not checked; UniProt P07231 81-97, looked up, variant E7A E10A E14A del16-17)		34 nM	
